Experimental data from patent US8148373B2, “Compounds” (AstraZeneca AB, priority 2008, dated 2012).

What was measured:
[1] = target: T1, Adrenergic β2 (H292 cells) (Homo sapiens, UniProt P07550); assay: Assay for Adrenergic β2 Mediated cAMP Production (concentration response, AlphaScreen cAMP detection); format: cell-based; settings: for EC50: cAMP production, 60 minutes at room temperature, 300 μM rolipram, read-out: β2 pEC50 (converted); for β2 Intrinsic activity: fraction relative to the maximum activity determined for formoterol
T1 construct: endogenous in cells; host or cells: H292 cells
Procedure, shortened: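 Intrinsic activity is relative to the per-experiment formoterol maximum, with pEC50 from a four-parameter logistic fit of cAMP levels quantified by AlphaScreen against standards. Cells (H292) got 300 μM rolipram for 10 min, then compound for 60 min at room temperature, 1% DMSO final.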

[2] = target: T2, human muscarinic acetylcholine M3 receptor (M3-ACh) (Homo sapiens, UniProt P20309); assay: Muscarinic 3 Receptor Binding Assay ([3H]NMS competition, SPA); settings: [3H]NMS 0.1 nM, CHO-K1 cell membranes, 16 hours at room temperature; read-out: M3 pIC50 (converted)
T2 construct: expressed in transfected cells; host or cells: CHO-K1 (Chinese Hamster Ovary) cell membranes
Procedure, shortened: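 Competition SPA binding of 0.1 nM [3H]NMS (quarter Kd) to membranes from CHO-K1 cells expressing human M3, in 20 mM HEPES pH 7.4, 5 mM MgCl2, 1% DMSO. Incubated 16 h at room temperature; non-specific binding with 1 µM atropine. pIC50 from 50% reduction of specific binding.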

T1 sequence (P07550 whole entry): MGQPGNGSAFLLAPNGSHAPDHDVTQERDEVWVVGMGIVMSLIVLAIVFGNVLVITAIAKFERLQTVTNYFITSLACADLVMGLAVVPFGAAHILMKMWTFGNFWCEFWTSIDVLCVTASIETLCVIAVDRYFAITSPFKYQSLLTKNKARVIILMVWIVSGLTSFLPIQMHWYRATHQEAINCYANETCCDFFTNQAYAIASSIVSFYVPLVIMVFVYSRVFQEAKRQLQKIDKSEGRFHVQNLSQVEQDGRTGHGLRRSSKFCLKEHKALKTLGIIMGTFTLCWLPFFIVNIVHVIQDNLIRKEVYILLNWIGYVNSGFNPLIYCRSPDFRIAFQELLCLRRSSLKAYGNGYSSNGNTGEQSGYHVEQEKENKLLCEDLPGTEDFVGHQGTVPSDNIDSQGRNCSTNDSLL
T2 sequence (P20309 whole entry): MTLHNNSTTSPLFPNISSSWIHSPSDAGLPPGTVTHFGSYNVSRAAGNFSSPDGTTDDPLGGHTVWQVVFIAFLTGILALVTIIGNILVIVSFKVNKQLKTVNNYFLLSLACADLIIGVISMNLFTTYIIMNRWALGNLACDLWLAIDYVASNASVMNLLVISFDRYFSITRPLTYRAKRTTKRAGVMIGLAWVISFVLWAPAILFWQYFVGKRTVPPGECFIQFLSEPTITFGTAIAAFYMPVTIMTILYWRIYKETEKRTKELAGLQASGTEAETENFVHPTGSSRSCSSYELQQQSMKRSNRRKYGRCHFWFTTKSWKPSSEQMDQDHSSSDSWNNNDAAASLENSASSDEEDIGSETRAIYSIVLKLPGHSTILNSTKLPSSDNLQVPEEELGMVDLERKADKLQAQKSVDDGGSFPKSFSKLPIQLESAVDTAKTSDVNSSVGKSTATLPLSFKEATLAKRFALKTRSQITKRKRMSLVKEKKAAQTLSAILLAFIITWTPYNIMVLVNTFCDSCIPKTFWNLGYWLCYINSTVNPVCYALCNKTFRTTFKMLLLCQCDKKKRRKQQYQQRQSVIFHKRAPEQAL

Compound | EC50 [1] | β2 Intrinsic activity [1] | IC50 [2]
Cc1ccc(S(=O)(=O)N2CCOC3(CCN(Cc4cc(F)cc(CCNC[C@H](O)c5ccc(O)c6[nH]c(=O)sc56)c4)CC3)C2)s1 [Example 63, (R)-7-(2-(3-Fluoro-5-((4-(5-methylthiophen-2-ylsulfonyl)-1-oxa-4,9-diazaspiro[5.5]undecan-9-yl)methyl)phenethylamino)-1-hydroxyethyl)-4-hydroxybenzo[d]thiazol-2(3H)-one ditrifluoroacetate] | 5.01 nM | 1 | > 1000 nM
CCc1ccc(C(=O)N2CCOC3(CCN(Cc4cccc(CCNC[C@H](O)c5ccc(O)c6[nH]c(=O)ccc56)c4)CC3)C2)s1 [Example 12, (R)-5-(2-(3-((4-(5-Ethylthiophene-2-carbonyl)-1-oxa-4,9-diazaspiro[5.5]undecan-9-yl)methyl)phenethylamino)-1-hydroxyethyl)-8-hydroxyquinolin-2(1H)-one ditrifluoroacetate] | 10 nM | 1 | 1 nM
Cc1nc(C(=O)N2CCOC3(CCN(CCc4ccc(CCNC[C@H](O)c5ccc(O)c6[nH]c(=O)sc56)s4)CC3)C2)cs1 [Example 4, (R)-4-Hydroxy-7-(1-hydroxy-2-(2-(5-(2-(4-(2-methylthiazole-4-carbonyl)-1-oxa-4,9-diazaspiro[5.5]undecan-9-yl)ethyl)thiophen-2-yl)ethylamino)ethyl)benzo[d]thiazol-2(3H)-one ditrifluoroacetate] | 15.8 nM | 0.9 | 1.26 nM
Cc1nc(C(=O)N2CCOC3(CCN(Cc4ccc(CCNC[C@H](O)c5ccc(O)c6[nH]c(=O)ccc56)s4)CC3)C2)cs1 [Example 14, (R)-8-Hydroxy-5-(1-hydroxy-2-(2-(5-((4-(2-methylthiazole-4-carbonyl)-1-oxa-4,9-diazaspiro[5.5]undecan-9-yl)methyl)thiophen-2-yl)ethylamino)ethyl)quinolin-2(1H)-one ditrifluoroacetate] | 5.01 nM | 0.9 | 6.31 nM

Further lines, results first:

EC50 [1] | β2 Intrinsic activity [1] | IC50 [2] | Compound
3.98 nM | 1.0 | 0.398 nM | CC(C)c1nc(C(=O)N2CCOC3(CCN(Cc4csc(CCNC[C@H](O)c5ccc(O)c6[nH]c(=O)sc56)c4)CC3)C2)cs1 [Example 278, (R)-4-hydroxy-7-(1-hydroxy-2-(2-(4-((4-(2-isopropylthiazole-4-carbonyl)-1-oxa-4,9-diazaspiro[5.5]undecan-9-yl)methyl)thiophen-2-yl)ethylamino)ethyl)benzo[d]thiazol-2(3H)-one ditrifluoroacetate]
7.94 nM | 0.9 | 39.8 nM | CC(C)(C)c1nc(C(=O)N2CCOC3(CCN(Cc4cc(F)cc(CCNC[C@H](O)c5ccc(O)c6[nH]c(=O)sc56)c4)CC3)C2)cs1 [Example 50, (R)-7-(2-(3-((4-(2-tert-Butylthiazole-4-carbonyl)-1-oxa-4,9-diazaspiro[5.5]undecan-9-yl)methyl)-5-fluorophenethylamino)-1-hydroxyethyl)-4-hydroxybenzo[d]thiazol-2(3H)-one ditrifluoroacetate]
100 nM | 0.9 | 0.631 nM | CC(C)c1nc(C(=O)N2CCOC3(CCN(Cc4cccc(SCCNC[C@H](O)c5ccc(O)c6[nH]c(=O)sc56)c4)CC3)C2)cs1 [Example 65, (R)-4-Hydroxy-7-(1-hydroxy-2-(2-(3-((4-(2-isopropylthiazole-4-carbonyl)-1-oxa-4,9-diazaspiro[5.5]undecan-9-yl)methyl)phenylthio)ethylamino)ethyl)benzo[d]thiazol-2(3H)-one ditrifluoroacetate]
12.6 nM | 1.1 | 0.398 nM | CC(C)c1nc(C(=O)N2CCOC3(CCN(Cc4cc(CCNC[C@H](O)c5ccc(O)c6[nH]c(=O)sc56)ccc4F)CC3)C2)cs1 [Example 40, (R)-7-(2-(4-Fluoro-3-((4-(2-isopropylthiazole-4-carbonyl)-1-oxa-4,9-diazaspiro[5.5]undecan-9-yl)methyl)phenethylamino)-1-hydroxyethyl)-4-hydroxybenzo[d]thiazol-2(3H)-one ditrifluoroacetate]
